Measured values reported in patent US9226929B2, “Pharmaceutically active disubstituted triazine derivatives” (Bayer Intellectual Property GMBH, priority 2011, dated 2016).

Assays:
CDK7/CyclinH/MAT1 = target: T1, CDK7/CyclinH/MAT1 (Homo sapiens, UniProt P50613); assay: LanthaScreen Eu Kinase Binding Assay, CDK7; settings: tracer 236, read-out: CDK7 (activity range), Kd
T1 construct: His; purchased Carna Biosciences
Protocol: (§1) This protocol describes how the LanthaScreen Eu Kinase Binding Assay was performed to determine dissociation constants (Kd) of compounds of general formula (I) and CDK/Cyclin complexes. The principle behind this assay is based upon the binding and displacement of an Alexa Fluor 647-labeled tracer, which binds to the active site of kinases. Binding of the tracer to the kinase is detected using a Eu-labeled antibody. Simultaneous binding of both the tracer and antibody to the kinase gives rise to a FRET-signal. Binding of an inhibitor to the kinase competes for binding with the tracer, resulting in a loss of FRET.
(§2) The compounds of general formula (I) summarized in Table 1 were diluted from a 10 mM DMSO stock solution 1:10 in a total volume of 15 μL DMSO. This compound predilution was then serial diluted 1:3 over 8 steps in DMSO and briefly spun down. Each compound solution was now diluted 1:33.33 in kinase buffer (HEPES: 20 mM, pH: 8.0; MgCl2: 10 mM; DTT: 1 mM; Brij-35: 0,01%), mixed thoroughly and spun down. For every sample, 5 μL of the diluted compound were mixed with 5 μL tracer working solution (e.g. 60 nM tracer 236 in kinase buffer for CDK2/Cyclin A) and 5 μL CDK/Cyclin/Anti-GST-AB-working solution (e.g. 15 nM CDK2/Cyclin A, 1:250 dilution of Anti-GST-AB in kinase buffer) in a well of a small volume 384 well plate (Corning Incorporated, Corning, N.Y., USA; order no. 3673). The tracer concentration was adjusted to its dissociation constant (Kd) for the CDK/Cyclin, which was 30 nM for CDK2/Cyclin A, CDK7/Cyclin H and CDK9/Cyclin T1, 20 nM for CDK8/Cyclin C, and 35 nM for CDK9/Cyclin K. For negative controls, in each well 5 μL of DMSO working solution (3% DMSO diluted in kinase buffer) was mixed with 5 μL Anti-GST-AB working solution (e.g. 1:250 dilution of Anti-GST-AB in kinase buffer for CDK2/Cyclin A) and 5 μL Tracer working solution (e.g. 60 nM Tracer 236 in kinase buffer for CDK2/Cyclin A). For positive controls, in each well 5 μL of DMSO working solution (3% DMSO diluted in kinase buffer) was mixed with 5 μL CDK/Cyclin/Anti-GST-AB-working solution: (e.g. 15 nM CDK2/Cyclin A, 1:250 dilution of Anti-GST-AB in kinase buffer) and 5 μL Tracer working solution (e.g. 60 nM Tracer 236 in kinase buffer for CDK2/Cyclin A). Positive and negative controls were calculated from at least 8 different sample wells. The 384 well plates were mixed in a Teleshaker plate mixer (Beckman Coulter, Brea, Calif., USA) at 2000 rpm for 40 sec, and incubated for 1 h at room temperature before reading. The FRET signal was measured at 340 nm excitation, 665 nm and 615 nm emission (for the kinase tracer and LanthaScreen Eu-AB, respectively) with an Envision spectrophotometer (Perkin Elmer, Waltham, Mass., USA) with […]. Kd values were determined from the sigmoidal dose response curves with the software Quattro Workflow (Quattro GmbH, Munich, Germany).

CDK9/Cyclin T1 = target: T2, CDK9/Cyclin T1 (Homo sapiens, UniProt P50750); assay: LanthaScreen Eu Kinase Binding Assay, CDK9/Cyclin T1; settings: tracer 236, read-out: CDK9/Cyclin T1 (activity range), Kd
T2 construct: His; purchased Invitrogen
Protocol: as §1, §2

CDK9/Cyclin K = target: T3, CDK9/Cyclin K (Homo sapiens, UniProt P50750); assay: LanthaScreen Eu Kinase Binding Assay, CDK9/Cyclin K; settings: tracer 236, read-out: CDK9/Cyclin K (activity range), Kd
T3 construct: His; purchased Invitrogen
Protocol: as §1, §2

T1 sequence (P50613 whole entry): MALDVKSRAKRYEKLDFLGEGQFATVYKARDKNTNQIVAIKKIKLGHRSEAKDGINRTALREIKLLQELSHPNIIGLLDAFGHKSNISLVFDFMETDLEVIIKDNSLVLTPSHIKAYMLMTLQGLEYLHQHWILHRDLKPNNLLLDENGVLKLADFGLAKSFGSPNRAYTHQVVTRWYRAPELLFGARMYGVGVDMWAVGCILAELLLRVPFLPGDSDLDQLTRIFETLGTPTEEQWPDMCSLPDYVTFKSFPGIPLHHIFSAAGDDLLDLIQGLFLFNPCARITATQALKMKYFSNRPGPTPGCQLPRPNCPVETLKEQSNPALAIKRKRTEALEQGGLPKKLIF
T1 sequence (P51946 whole entry partner): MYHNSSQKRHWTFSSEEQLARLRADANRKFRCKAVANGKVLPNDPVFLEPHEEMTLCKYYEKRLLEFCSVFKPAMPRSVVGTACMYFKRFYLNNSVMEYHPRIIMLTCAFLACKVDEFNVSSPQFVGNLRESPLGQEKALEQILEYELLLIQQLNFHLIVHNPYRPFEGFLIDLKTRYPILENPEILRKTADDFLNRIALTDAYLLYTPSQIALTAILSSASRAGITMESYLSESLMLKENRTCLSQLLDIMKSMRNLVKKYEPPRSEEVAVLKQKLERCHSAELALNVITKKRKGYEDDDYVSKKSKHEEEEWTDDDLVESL
T1 sequence (P51948 whole entry partner): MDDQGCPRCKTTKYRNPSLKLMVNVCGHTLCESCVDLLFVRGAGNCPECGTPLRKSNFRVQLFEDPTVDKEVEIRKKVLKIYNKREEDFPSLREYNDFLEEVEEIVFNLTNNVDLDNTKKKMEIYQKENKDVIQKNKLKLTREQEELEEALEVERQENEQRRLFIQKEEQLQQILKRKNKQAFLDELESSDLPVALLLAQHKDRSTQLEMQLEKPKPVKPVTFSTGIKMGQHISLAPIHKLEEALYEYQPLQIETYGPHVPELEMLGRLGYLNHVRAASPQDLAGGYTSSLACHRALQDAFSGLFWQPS
T2 sequence (P50750 whole entry): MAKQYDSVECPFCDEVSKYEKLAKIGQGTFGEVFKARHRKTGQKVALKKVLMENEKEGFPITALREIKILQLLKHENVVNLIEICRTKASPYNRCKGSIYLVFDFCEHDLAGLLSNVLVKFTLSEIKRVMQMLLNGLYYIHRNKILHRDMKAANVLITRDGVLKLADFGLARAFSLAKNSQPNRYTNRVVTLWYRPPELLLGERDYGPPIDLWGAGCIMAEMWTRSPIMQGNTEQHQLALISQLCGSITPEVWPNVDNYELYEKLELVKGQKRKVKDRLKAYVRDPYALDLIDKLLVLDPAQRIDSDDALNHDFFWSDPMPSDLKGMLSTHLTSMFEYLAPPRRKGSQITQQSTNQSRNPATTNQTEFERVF
T2 sequence (O60563 whole entry partner): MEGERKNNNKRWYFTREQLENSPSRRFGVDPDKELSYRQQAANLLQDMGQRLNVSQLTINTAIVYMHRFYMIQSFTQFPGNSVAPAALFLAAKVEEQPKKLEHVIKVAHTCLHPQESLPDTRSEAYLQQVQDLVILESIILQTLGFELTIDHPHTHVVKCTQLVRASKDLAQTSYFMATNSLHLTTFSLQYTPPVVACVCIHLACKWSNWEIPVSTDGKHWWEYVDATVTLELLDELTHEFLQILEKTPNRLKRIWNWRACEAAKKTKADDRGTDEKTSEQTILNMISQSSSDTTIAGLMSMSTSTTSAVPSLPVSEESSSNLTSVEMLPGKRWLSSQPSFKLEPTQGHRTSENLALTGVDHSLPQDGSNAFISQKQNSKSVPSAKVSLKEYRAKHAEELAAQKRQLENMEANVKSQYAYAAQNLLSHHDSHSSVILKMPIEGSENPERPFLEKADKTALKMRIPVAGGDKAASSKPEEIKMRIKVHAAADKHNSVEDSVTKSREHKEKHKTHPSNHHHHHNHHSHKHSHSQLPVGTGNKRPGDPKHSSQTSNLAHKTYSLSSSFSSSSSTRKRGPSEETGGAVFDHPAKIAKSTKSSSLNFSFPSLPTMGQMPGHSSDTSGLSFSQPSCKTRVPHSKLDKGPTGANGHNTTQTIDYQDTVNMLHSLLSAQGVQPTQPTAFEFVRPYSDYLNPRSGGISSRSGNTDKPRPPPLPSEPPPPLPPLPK
T3 sequence (P50750 whole entry): as the sequence (P50750 whole entry) above
T3 sequence (O75909 1-357 isoform O75909-1 partner): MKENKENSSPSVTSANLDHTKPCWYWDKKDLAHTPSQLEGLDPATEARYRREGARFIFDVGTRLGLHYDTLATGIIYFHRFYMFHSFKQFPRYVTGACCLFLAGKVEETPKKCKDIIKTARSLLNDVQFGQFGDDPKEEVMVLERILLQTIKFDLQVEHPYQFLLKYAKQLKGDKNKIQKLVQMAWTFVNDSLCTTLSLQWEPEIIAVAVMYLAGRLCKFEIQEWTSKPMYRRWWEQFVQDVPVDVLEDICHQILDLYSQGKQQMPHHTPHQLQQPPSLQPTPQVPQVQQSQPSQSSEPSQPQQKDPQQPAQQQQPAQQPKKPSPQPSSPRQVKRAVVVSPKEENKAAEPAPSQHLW

Compound | Kd (CDK7/CyclinH/MAT1) [µM] | Kd (CDK9/Cyclin T1) [µM] | Kd (CDK9/Cyclin K) [µM]
CN1CCN(c2ncnc(Nc3cccc(CS(N)(=O)=O)c3)n2)CC1 [Compound B12, 3-[(4-(4-Methylpiperazin-1-yl)-1,3,5-triazin-2-yl)amino]-benzenemethanesulfonamide] | > 10 | > 10 | > 10
COC[C@@H]1CC[C@@H](COC)N1c1ncnc(Nc2cccc(CS(N)(=O)=O)c2)n1 [Compound B20] | > 10 | > 10 | > 10
NS(=O)(=O)Cc1cccc(Nc2ncnc(N3CCCC3)n2)c1 [Compound B14, 3-[(4-(Pyrrolidin-1-yl)-1,3,5-triazin-2-yl)amino]benzenemethane sulfonamide] | > 10 | 0.1 to 1 | 1 to 10
COC(=O)[C@@H]1CCCN1c1ncnc(Nc2cccc(CS(N)(=O)=O)c2)n1 [Compound B22, (S)-Methyl 1-[4-((3-(Sulfamoylmethyl)phenyl)amino)-1,3,5-triazin-2-yl]pyrrolidine-2-carboxylate] | > 10 | > 10 | > 10
NS(=O)(=O)Cc1cccc(Nc2ncnc(N3CCCCC3c3ccccc3)n2)c1 (racemic) [Compound B9, rac-3-[(4-(2-Phenylpiperidin-1-yl)-1,3,5-triazin-2-yl)amino]-benzenemethanesulfonamide] | > 10 | 0.1 to 1 | 0.1 to 1
NS(=O)(=O)Cc1cccc(Nc2ncnc(N3CCC[C@H]3C(F)(F)F)n2)c1 [Compound B16, (S)-3-[(4-(2-(Trifluoromethyl)pyrrolidin-1-yl)-1,3,5-triazin-2-yl)amino]-benzenemethanesulfonamide] | > 10 | 0.1 to 1 | 1 to 10
C[C@@H]1CCCN1c1ncnc(Nc2cccc(CS(N)(=O)=O)c2)n1 [Compound B15, (R)-3-[(4-(2-Methylpyrrolidin-1-yl)-1,3,5-triazin-2-yl)amino]-benzenemethanesulfonamide] | > 10 | 0.1 to 1 | 1 to 10
NS(=O)(=O)Cc1cccc(Nc2ncnc(N3CCCC(F)(F)C3)n2)c1 [Compound B3, 3-[(4-(3,3-Difluoropiperidin-1-yl)-1,3,5-triazin-2-yl)amino]-benzenemethanesulfonamide] | > 10 | 0.1 to 1 | 0.1 to 1
COC(=O)[C@H]1CCCCN1c1ncnc(Nc2cccc(CS(N)(=O)=O)c2)n1 [Compound B6, (R)-Methyl 1-[4-((3-(Sulfamoylmethyl)phenyl)amino)-1,3,5-triazin-2-yl]piperidine-2-carboxylate] | > 10 | < 0.1 | 0.1 to 1
NS(=O)(=O)Cc1cccc(Nc2ncnc(N3CCNCC3CO)n2)c1 (racemic) [Compound B13, rac-3-[(4-(2-(Hydroxymethyl)piperazin-1-yl)-1,3,5-triazin-2-yl)amino]benzenemethanesulfonamide] |  | > 10 | > 10
CC(C)(C)OC(=O)NCC1CCCCN1c1ncnc(Nc2cccc(CS(N)(=O)=O)c2)n1 (racemic) [Compound B7, rac-tert-Butyl[(1-(4-((3-(Sulfamoylmethyl)phenyl)amino)-1,3,5-triazin-2-yl)piperidine-2-yl)methyl]carbamate] | > 10 | > 10 | > 10
COCC1CCCCN1c1ncnc(Nc2cccc(CS(N)(=O)=O)c2)n1 (racemic) [Compound B4, rac-3-[(4-(2-Methoxymethylpiperidin-1-yl)-1,3,5-triazin-2-yl)amino]-benzenemethanesulfonamide] | > 10 | 0.1 to 1 | 0.1 to 1

Other lines, results leading:

Kd (CDK7/CyclinH/MAT1) [µM] | Kd (CDK9/Cyclin T1) [µM] | Kd (CDK9/Cyclin K) [µM] | Compound
> 10 | 0.1 to 1 | 0.1 to 1 | NS(=O)(=O)Cc1cccc(Nc2ncnc(N3CCCC3Cc3ccccc3)n2)c1 (racemic) [Compound B26, rac-3-[(4-(2-Benzylpyrrolidin-1-yl)-1,3,5-triazin-2-yl)amino]-benzenemethanesulfonamide]
1 to 10 | 0.1 to 1 | 0.1 to 1 | NS(=O)(=O)Cc1cccc(Nc2ncnc(N3CCc4sccc4C3)n2)c1 [Compound B43, 3-[(4-(6,7-Dihydrothieno[3,2-c]pyridin-5(4H)-yl)-1,3,5-triazin-2-yl)amino]benzenemethanesulfonamide]
> 10 | 0.1 to 1 | 1 to 10 | NS(=O)(=O)Cc1cccc(Nc2ncnc(N3CCc4ncncc4C3)n2)c1 [Compound B39, 3-[(4-(7,8-Dihydropyrido[4,3-d]pyrimidin-6(5H)-yl)-1,3,5-triazin-2-yl)amino]benzenemethanesulfonamide]
> 10 | 1 to 10 | 1 to 10 | Nc1cccc2c1CCN(c1ncnc(Nc3cccc(CS(N)(=O)=O)c3)n1)C2 [Compound B41, 3-[(4-(5-Amino-3,4-dihydroisoquinolin-2(1H)-yl)-1,3,5-triazin-2-yl)amino]benzenemethanesulfonamide]
> 10 | 1 to 10 | 1 to 10 | NS(=O)(=O)Cc1cccc(Nc2ncnc(N3CCC[C@@H]3COc3ccccc3)n2)c1 [Compound B28, (R)-3-[(4-(2-(Phenoxymethyl)pyrrolidin-1-yl)-1,3,5-triazin-2-yl)amino]-benzenemethanesulfonamide]
> 10 | 1 to 10 | 1 to 10 | NS(=O)(=O)Cc1cccc(Nc2ncnc(N3CCn4ccnc4C3)n2)c1 [Compound B46, 3-[(4-(5,6-Dihydroimidazo[1,2-a]pyrazin-7(8H)-yl)-1,3,5-triazin-2-yl)amino]benzenemethanesulfonamide]
> 10 | 0.1 to 1 | 1 to 10 | NS(=O)(=O)Cc1cccc(Nc2ncnc(N3Cc4cncnc4C3)n2)c1 [Compound B50, 3-[(4-(5H-Pyrrolo[3,4-d]pyrimidin-6(7H)-yl)-1,3,5-triazin-2-yl)amino]-benzenemethanesulfonamide]
> 10 | 1 to 10 | 1 to 10 | NS(=O)(=O)Cc1cccc(Nc2ncnc(N3CCCC3CCc3ccccc3)n2)c1 (racemic) [Compound B27, rac-3-[(4-(2-(2-Phenylethyl)pyrrolidin-1-yl)-1,3,5-triazin-2-yl)amino]-benzenemethanesulfonamide]
> 10 | 1 to 10 | 1 to 10 | NS(=O)(=O)Cc1cccc(Nc2ncnc(N3CCC[C@@H]3CNc3ccccc3)n2)c1 [Compound B29, (R)-3-[(4-(2-(Phenylamino-methyl)pyrrolidin-1-yl)-1,3,5-triazin-2-yl)amino]benzenemethanesulfonamide]
> 10 | 1 to 10 | 0.1 to 1 | NS(=O)(=O)Cc1cccc(Nc2ncnc(N3Cc4cccnc4C3)n2)c1 [Compound B48, 3-[(4-(5H-Pyrrolo[3,4-b]pyridin-6(7H)-yl)-1,3,5-triazin-2-yl)amino]-benzenemethanesulfonamide]
> 10 | 1 to 10 | 1 to 10 | COC(=O)[C@H]1CCN1c1ncnc(Nc2cccc(CS(N)(=O)=O)c2)n1 [Compound B36, (R)-Methyl 1-[4-((3-(Sulfamoylmethyl)phenyl)amino)-1,3,5-triazin-2-yl]azetidine-2-carboxylate]
> 10 | > 10 | > 10 | NC(=O)[C@H]1CCCN1c1ncnc(Nc2cccc(CS(N)(=O)=O)c2)n1 [Compound B23, (R)-1-[4-((3-(Sulfamoylmethyl)phenyl)amino)-1,3,5-triazin-2-yl]pyrrolidine-2-carboxamide]
> 10 | > 10 | > 10 | NS(=O)(=O)Cc1cccc(Nc2ncnc(N3CCC[C@H]3CN3CCCC3)n2)c1 [Compound B32, (S)-3-[(4-(2-((Pyrrolidin-1-yl)methyl)pyrrolidin-1-yl)-1,3,5-triazin-2-yl)amino]benzenemethanesulfonamide]
